Results: patent publication US8513266B2, “Methods of treating cancer using pyridopyrimidinone inhibitors of PI3K alpha” (priority 2007, dated 2013)

Experiments:
Format in all cases: in vivo
[1] = system: MCF7 human mammary adenocarcinoma cells; test: MCF7 breast cancer xenograft model; conditions: MCF7 tumors at end of study, 30 mg/kg qd each agent, alone or combined
Protocol: (§1) Female and male athymic nude mice (NCr) 5-8 weeks of age and weighing approximately 20-25 g were used in the following model. Prior to initiation of a study, the animals were allowed to acclimate for a minimum of 48 h. During these studies, animals were provided food and water ad libitum and housed in a room conditioned at 70-75° F. and 60% relative humidity. A 12 h light and 12 h dark cycle was maintained with automatic timers. All animals were examined daily for compound-induced or tumor-related deaths.
MCF7 human mammary adenocarcinoma cells were cultured in vitro in DMEM (Cellgro) supplemented with 10% Fetal Bovine Serum (Cellgro), Penicillin-Streptomycin and non-essential amino acids at 37° C. in a humidified 5% CO2 atmosphere. […] A transponder was implanted into each mouse for identification and data tracking, and animals were monitored daily for clinical symptoms and survival. During the dosing period, the tumor weight of each animal was determined twice weekly and the body weight of each animal was measured daily. […]
For subcutaneous or intradermal tumors, the mean tumor weight of each animal in the respective control and treatment groups was determined twice weekly during the study. Tumor weight (TW) was determined by measuring perpendicular diameters with a caliper, using the following formula: tumor weight (mg)=[tumor volume=length (mm)×width^2 (mm^2)]/2 […]

[2] = system: A549 human lung carcinoma cells; test: A549 non-small cell lung cancer xenograft model; conditions: Compound A 30 mg/kg qd
Protocol: as §1
(§2) A549 human lung carcinoma cells were cultured in vitro in DMEM (Mediatech) supplemented with 10% Fetal Bovine Serum (Hyclone), PenicilliN-Streptomycin and non-essential amino acids at 37° C. in a humidified 5% CO2 atmosphere. […] A transponder was implanted in each mouse for identification, and animals were monitored daily for clinical symptoms and survival. Body weights were recorded daily. […]
(§3) For subcutaneous or intradermal tumors, the mean tumor weight of each animal in the respective control and treatment groups was determined twice weekly during the study. Tumor weight (TW) was determined by measuring perpendicular diameters with a caliper, using the following formula: tumor weight (mg)=[tumor volume=length (mm)×width^2 (mm^2)]/2
(§4) Percent inhibition of tumor growth (TGI) is determined with the following formula: […]

[3] = system: Calu-6 human lung anaplastic carcinoma cells; test: Calu-6 non-small cell lung cancer xenograft model; conditions: Calu-6 xenograft, single agents; Compound A 100 mg/kg q2d or 30 mg/kg bid oral; carboplatin 50 mg/kg i.v. q4d
Protocol: as §1
as §2, with “Calu-6” for “A549”, “lung anaplastic” for “lung”, “Penicillin-Streptomycin” for “PenicilliN-Streptomycin”, “humidified,” for “humidified”
as §3, §4

[4] = system: MDA-MB-468 human breast adenocarcinoma cells; conditions: MDA-MB-468 xenograft; erlotinib 100 mg/kg qd oral; Compound A 100 mg/kg q2d oral; combination of the two
Protocol: as §1, with “deaths. […]” for “deaths.”
as §3
Percent inhibition of tumor growth (TGI) is determined with the following formula:
[formula] • where X0=average TW of all tumors on group day • Xf=TW of treated group on Day f • Yf=TW of vehicle control group on Day f If tumors regress below their starting sizes, then the percent tumor regression is determined with the following formula:
[formula] Tumor size is calculated individually for each tumor to obtain a mean±SEM value for each experimental group. […]

[5] = system: PC-3 human prostate adenocarcinoma cells
Protocol: as §1
as §2, with “PC-3” for “A549”, “prostate adenocarcinoma” for “lung carcinoma”, “20%” for “10%”, “Penicillin-Streptomycin” for “PenicilliN-Streptomycin”
as §3, §4

COc1cc2c(Nc3ccc(Cl)c(Cl)c3F)ncnc2cc1OC[C@@H]1C[C@@H]2CN(C)C[C@@H]2C1 [Compound B, N-(3,4-dichloro-2-fluorophenyl)-7-({[(3aR,5r,6aS)-2-methyloctahydrocyclopenta-[c]pyrrol-5-yl]methyl}oxy)-6-(methyloxy)quinazolin-4-amine]
induction of TUNEL-positive (apoptotic) cells ([1]; compared to vehicle control): did not result in a significant induction | decrease in CD31-positive tumor vessels (microvessel density, MVD) [1]: 31% | tumor growth inhibition (TGI) (FIG. 4a) ([2]; Compound B 30 mg/kg qd oral for 18 days, combination: Compound B followed by Compound A after about six hours): 80% | dose skipping ([2]; Compound B 30 mg/kg qd, alone or co-administered): no dose omission

N.N.O=C([O-])C1(C(=O)[O-])CCC1.[Pt+2] [carboplatin]
tumor growth inhibition (FIG. 3) [3]: Significant tumor growth inhibition

C#Cc1cccc(Nc2ncnc3cc(OCCOC)c(OCCOC)cc23)c1 [erlotinib]
tumor growth inhibition (FIG. 5) [4]: significant but incomplete tumor growth inhibition

CO[C@H]1C[C@@H]2CC[C@@H](C)[C@@](O)(O2)C(=O)C(=O)N2CCCC[C@H]2C(=O)O[C@H]([C@H](C)C[C@@H]2CC[C@@H](O)[C@H](OC)C2)CC(=O)[C@H](C)/C=C(\C)[C@@H](O)[C@@H](OC)C(=O)[C@H](C)C[C@H](C)/C=C/C=C/C=C/1C [rapamycin, Rapamycin]
decrease in the fraction of proliferating cells (Ki67) (FIG. 6) ([5]; PC-3 tumors resected at end of efficacy study, Compound A 100 mg/kg q2d, rapamycin, monotherapy or combined): 77%

CC(=O)O[C@H]1C(=O)[C@@]2(C)[C@H]([C@H](OC(=O)c3ccccc3)[C@]3(O)C[C@H](OC(=O)[C@H](O)[C@@H](NC(=O)c4ccccc4)c4ccccc4)C(C)=C1C3(C)C)[C@]1(OC(C)=O)CO[C@@H]1C[C@@H]2O [taxol, Paclitaxel]
tumor growth inhibition (FIG. 1) ([5]; PC-3 xenograft, Compound A 100 mg/kg q2d or 30 mg/kg bid oral, taxol 7.5 mg/kg i.v. twice weekly, combination of either dose of Compound A with taxol): Comparable tumor growth inhibition
